Key:
[1] = Hot plate test (analgetic activity); format: in vivo; conditions: sc.
[2] = Tail Flick test (analgetic activity); format: in vivo; conditions: read-out: Tail Flick ED50
[3] = Sensitivity to light; format: physicochemical; conditions: effect of light

## COc1ccc2c3c1O[C@H]1C(=NNc4ccccc4)CC[C@H]4[C@@H](C2)N(C)CC[C@]314 [Dihydrocodeinone phenylhydrazone]
[1]
  ED50: 2.4 mg/kg
[2]; sc.
  ED50: 2.3 mg/kg

## COc1ccc2c3c1O[C@H]1C(=NNC(N)=S)CC[C@H]4[C@@H](C2)N(C)CC[C@]314 [Dihydrocodeinone thiosemicarbazone]
[1]
  ED50: 1.7 mg/kg
[2]; sc.
  ED50: 0.6 mg/kg

## COc1ccc2c3c1O[C@H]1C(=NNC(N)=O)CC[C@@]4(O)[C@@H](C2)N(C)CC[C@]314 [Oxycodone semicarbazone, 14-OH-dihydrocodeinonesemicarbazone]
[1]
  ED50: 0.58 mg/kg
[2]; sc.
  ED50: 0.45 mg/kg

## CN1CC[C@]23c4c5ccc(O)c4O[C@H]2C(=NNC(N)=O)CC[C@H]3[C@H]1C5 [Dihydromorphinone semicarbazone]
[1]
  ED50: 0.085 mg/kg
[2]; sc.
  ED50: 0.13 mg/kg

## CN1CC[C@]23c4c5ccc(O)c4O[C@H]2C(=NNc2ccc([N+](=O)[O-])cc2[N+](=O)[O-])CC[C@@]3(O)[C@H]1C5 [Oxymorphone dinitrophenylhydrazone, 14-OH-dihydromorphinone-2,4-dinitrophenyl hydrazone]
[1]
  ED50: 0.37 mg/kg
[2]; sc.
  ED50: 0.27 mg/kg

## CN1CC[C@]23c4c5ccc(O)c4O[C@H]2C(=NNC(N)=O)CC[C@@]3(O)[C@H]1C5 [Oxymorphone semicarbazone, 14-OH-dihydromorphinone semicarbazone]
[1]
  ED50: 0.9 mg/kg
[2]; sc.
  ED50: 0.9 mg/kg

## CN1CC[C@]23c4c5ccc(O)c4O[C@H]2C(=NNc2ccc([N+](=O)[O-])cc2[N+](=O)[O-])CC[C@H]3[C@H]1C5 [Dihydromorphinone dinitrophenylhydrazone, Dihydromorphinone-2,4-dinitrophenyl hydrazone]
[1]
  ED50: 0.27 mg/kg
[2]; sc.
  ED50: 0.18 mg/kg

## COc1ccc2c3c1O[C@H]1C(=NNc4ccccc4)CC[C@@]4(O)[C@@H](C2)N(C)CC[C@]314 [Oxycodone phenylhydrazone, 14-OH-dihydrocodeinone phenylhydrazone]
[1]
  ED50: 0.8 mg/kg
[2]; sc.
  ED50: 1.2 mg/kg

## COc1ccc2c3c1O[C@H]1C(=NNc4ccccc4)C=C[C@@]4(O)[C@@H](C2)N(C)CC[C@]314 [14-OH-codeinone phenylhydrazone]
[3]
  sensitivity to light: sensitive to light, it turns to yellow due to the effect of light

## COc1ccc2c3c1O[C@H]1C(=NNC(N)=O)CC[C@H]4[C@@H](C2)N(C)CC[C@]314 [Dihydrocodeinone semicarbazone, Dihydrocodeinonesemicarbazone]
[1]
  ED50: 0.38 mg/kg
[2]; sc.
  ED50: 0.35 mg/kg

## CN1CC[C@]23c4c5ccc(O)c4O[C@H]2[C@@H](O)C=C[C@H]3[C@H]1C5 [Morphine, reference compound]
[1]
  Hot plate test ED50: 3.6 mg/kg
[2]; sc
  ED50: 5 mg/kg
